Measured values as given in ChEMBL document CHEMBL2311253, “Isatin replacements applied to the highly selective, muscarinic M1 PAM ML137: continued optimization of an MLPCN probe molecule” (Bioorg Med Chem Lett, 2013).
Calls of active or inactive are those of the source. The rule behind the calls is not given here.

Legend:
Format in all cases: functional
[1] = target: T1, Muscarinic acetylcholine receptor M1 (Homo sapiens) (UniProt P11229); experiment: Positive allosteric modulator activity at human muscarinic M1 receptor up to 30 uM by calcium mobilization assay
T1 sequence (whole entry): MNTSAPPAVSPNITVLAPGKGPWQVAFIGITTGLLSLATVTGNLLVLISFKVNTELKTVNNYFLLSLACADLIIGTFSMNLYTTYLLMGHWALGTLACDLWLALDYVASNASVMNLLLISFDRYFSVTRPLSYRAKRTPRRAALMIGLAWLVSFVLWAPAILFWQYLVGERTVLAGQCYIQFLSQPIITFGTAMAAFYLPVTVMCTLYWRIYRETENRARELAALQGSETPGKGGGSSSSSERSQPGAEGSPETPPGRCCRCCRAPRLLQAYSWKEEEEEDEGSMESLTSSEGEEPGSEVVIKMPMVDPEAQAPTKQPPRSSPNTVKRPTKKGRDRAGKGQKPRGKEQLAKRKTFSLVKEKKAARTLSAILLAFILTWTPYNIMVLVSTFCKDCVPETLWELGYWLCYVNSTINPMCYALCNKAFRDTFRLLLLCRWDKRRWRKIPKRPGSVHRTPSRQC

[2] = target: T1, Muscarinic acetylcholine receptor M1 (Homo sapiens); experiment: Positive allosteric modulator activity at human muscarinic M1 receptor relative to acetylcholine by calcium mobilization assay; parameters: concentration or dose not given beside the values
[3] = target: T2, Muscarinic acetylcholine receptor M1 (Homo sapiens, UniProt P11229); experiment: Positive allosteric modulator activity at human muscarinic M1 receptor by calcium mobilization assay
T2 sequence (P11229 whole entry): T1 sequence (whole entry)

[4] = target: T1, Muscarinic acetylcholine receptor M1 (Homo sapiens); experiment: Positive allosteric modulator activity at human muscarinic M1 receptor assessed as fold shift of acetylcholine concentration curve to the left at 30 uM by calcium mobilization assay relative to untreated acetylcholine control
[5] = target: T3, Muscarinic acetylcholine receptor M4 (Homo sapiens) (UniProt P08173); experiment: Positive allosteric modulator activity at human muscarinic M4 receptor by calcium mobilization assay
T3 sequence (whole entry): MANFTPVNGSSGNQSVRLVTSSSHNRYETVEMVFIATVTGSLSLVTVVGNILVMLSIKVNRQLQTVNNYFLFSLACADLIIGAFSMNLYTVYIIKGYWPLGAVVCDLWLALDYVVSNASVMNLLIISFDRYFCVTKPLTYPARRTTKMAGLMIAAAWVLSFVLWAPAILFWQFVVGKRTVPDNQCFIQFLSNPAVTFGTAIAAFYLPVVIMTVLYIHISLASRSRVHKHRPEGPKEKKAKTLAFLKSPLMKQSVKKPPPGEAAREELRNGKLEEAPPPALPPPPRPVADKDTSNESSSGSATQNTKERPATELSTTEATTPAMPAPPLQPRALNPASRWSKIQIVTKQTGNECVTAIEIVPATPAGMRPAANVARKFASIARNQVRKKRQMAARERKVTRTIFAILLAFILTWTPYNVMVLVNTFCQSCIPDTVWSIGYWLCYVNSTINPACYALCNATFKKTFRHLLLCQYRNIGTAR

Row | Compound | Activity [1] | Activity [2] | EC50 [3] | further results
1 | CC(=O)N(Cc1ccc(-c2cnn(C)c2)cc1F)c1ccccc1 | inactive | – | – | –
2 | Cn1cc(-c2ccc(CN3C(=O)C(N)c4ccccc43)c(F)c2)cn1 (racemic) | – | 50% | 1.3 µM | –
3 | Cn1cc(-c2ccc(CN3CC(c4ccccc4)CC3=O)c(F)c2)cn1 (centres undefined) | inactive | – | – | –
4 | CN(C)C1(C)C(=O)N(Cc2ccc(-c3cnn(C)c3)cc2)c2ccccc21 (racemic) | – | 48% | > 10 µM | –
5 | Cn1cc(-c2ccc(CN3C(=O)NCc4ccccc43)c(F)c2)cn1 | – | 53% | > 10 µM | –
6 | Cn1cc(-c2ccc(CN3C(=O)C(O)(C(F)(F)F)c4ccccc43)c(Cl)c2)cn1 (racemic) | – | 29% | > 10 µM | –
7 | Cn1cc(-c2ccc(CN3C(=O)C[S+]([O-])c4ccccc43)c(F)c2)cn1 (centres undefined) | – | 46% | > 10 µM | –
8 | CCn1cc(-c2ccc(CN3C(=O)C(O)(C(F)(F)F)c4ccccc43)c(F)c2)cn1 (racemic) | – | 37% | 3.3 µM | –
9 | Cn1cc(-c2ccc(CN3C(=O)c4cccc5cccc3c45)c(F)c2)cn1 | inactive | – | – | –
10 | Cn1cc(-c2ccc(CN3CCSc4ccccc43)c(F)c2)cn1 | inactive | – | – | –
11 | Cn1cc(-c2ccc(Cn3ccccc3=O)c(F)c2)cn1 | inactive | – | – | –
12 | Cn1cc(-c2ccc(Cn3c4ccccc4c4cccnc43)c(F)c2)cn1 | inactive | – | – | –
13 | COC1(C(F)(F)F)C(=O)N(Cc2ccc(-c3cnn(C)c3)cc2F)c2ccccc21 (racemic) | inactive | – | – | –
14 | Cn1cc(-c2ccc(CN3C(=O)C(=O)c4ccccc43)c(F)c2)cn1 | – | 45% | 0.6 µM | fold change (FC) [4]: 2.7
15 | Cn1cc(-c2ccc(CN3C(=O)CCCc4ccccc43)c(F)c2)cn1 | inactive | – | – | –
16 | Cn1cc(-c2ccc(CN3C(=O)C(O)(C(F)(F)F)c4ccccc43)c(F)c2)cn1 (racemic) | – | 51% | – | fold change (FC) [4]: 7.4
17 | Cn1cc(-c2ccc(Cn3c(=O)[nH]c4ccccc43)c(F)c2)cn1 | inactive | – | – | –
18 | Cn1cc(-c2ccc(CN3c4ccccc4CS3(=O)=O)c(F)c2)cn1 | – | 41% | > 10 µM | –
19 | Cn1cc(-c2ccc(CN3C(=O)COc4ccccc43)c(F)c2)cn1 | – | 52% | 5.2 µM | –
20 | Cn1cc(-c2ccc(Cn3c4ccccc4c4nccnc43)c(F)c2)cn1 | inactive | – | – | –

Row | Compound | Activity [1] | Activity [2] | EC50 [3] | further results
21 | Cn1cc(-c2ccc(CN3C(=O)OCc4ccccc43)c(F)c2)cn1 | – | 62% | > 10 µM | –
22 | Cn1cc(-c2ccc(CN3C(=O)C(O)(C(F)(F)F)c4ccccc43)c(F)c2)cn1 (stereo in doubt; 23h) | – | 57% | – | fold change (FC) [4]: 12
23 | Cn1cc(-c2ccc(CN3C(=O)CCc4ccccc43)c(F)c2)cn1 | – | 44% | 5.6 µM | –
24 | COc1nc2ccccc2n1Cc1ccc(-c2cnn(C)c2)cc1F | inactive | – | – | –
25 | Cn1cc(-c2ccc(CN3C(=O)Cc4ccccc43)c(F)c2)cn1 | – | 64% | 2.4 µM | Activity [5]: Active; fold change (FC) [4]: 27.2
26 | CC(C)n1cc(-c2ccc(CN3C(=O)C(O)(C(F)(F)F)c4ccccc43)c(F)c2)cn1 (racemic) | inactive | – | – | –
27 | Cn1cc(-c2ccc(CN3C(=O)C(O)(CF)c4ccccc43)c(F)c2)cn1 (racemic) | – | 59% | > 10 µM | fold change (FC) [4]: 8
28 | Cn1cc(-c2ccc(CN3C(=O)CS(=O)(=O)c4ccccc43)c(F)c2)cn1 | – | 36% | > 10 µM | –
29 | Cn1cc(-c2ccc(CN3C(=O)C(F)(F)c4ccccc43)c(F)c2)cn1 | inactive | – | – | –
30 | Cn1cc(-c2ccc(CN3C(=O)C(O)(C(F)(F)F)c4ccccc43)cc2)cn1 (racemic) | – | 66% | 4 µM | fold change (FC) [4]: 15.2
31 | Cn1cc(-c2ccc(CN3C(=O)C(C)(N)c4ccccc43)c(F)c2)cn1 (racemic) | – | 28% | > 10 µM | –
32 | O=C1N(Cc2ccc(-c3cn[nH]c3)cc2F)c2ccccc2C1(O)C(F)(F)F (racemic) | inactive | – | – | –
33 | Cn1cc(-c2ccc(Cn3c(=O)ccc4ccccc43)c(F)c2)cn1 | – | 51% | > 10 µM | –
34 | CC1C(=O)N(Cc2ccc(-c3cnn(C)c3)cc2F)c2ccccc21 (racemic) | – | 53% | > 10 µM | –
35 | CCCn1cc(-c2ccc(CN3C(=O)C(O)(C(F)(F)F)c4ccccc43)c(F)c2)cn1 (racemic) | inactive | – | – | –
36 | Cn1cc(-c2ccc(CN3CCc4ccccc43)c(F)c2)cn1 | inactive | – | – | –
37 | Cn1cc(-c2ccc(CN3C(=O)C(O)(C(F)(F)F)c4ccccc43)c(F)c2)cn1 (centres undefined) | inactive | – | – | –
38 | Cn1cc(-c2ccc(CN3C(=O)C(C)(O)c4ccccc43)c(F)c2)cn1 (racemic) | – | 49% | > 10 µM | fold change (FC) [4]: 6.5
39 | Cn1cc(-c2ccc(CN3C(=O)CSc4ccccc43)c(F)c2)cn1 | – | 30% | 3.2 µM | –
40 | Cn1cc(-c2ccc(CN3C(=O)C(F)(C(F)(F)F)c4ccccc43)c(F)c2)cn1 (racemic) | – | 25% | > 10 µM | –
